From ChEMBL document CHEMBL1201862, “PubChem BioAssay data set” (2004)
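Where inhibition never reached the appropriate level, the endpoint shown equals the highest concentration tested. Otherwise, values were interpolated linearly from a five-concentration, 48-hour dose response in 96-well plates. GI50 is the concentration that inhibits growth by half.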 Calls of active or inactive are those of the source. Rule as the data show it: active = GI50 up to about 1.1 µM and inactive = higher.

What was measured:
Test in all cases: NCI anticancer screen, dose series, 48 h
786-0 = tested on: 786-0
A498 = tested on: A498
ACHN = tested on: ACHN
EKVX = tested on: EKVX
HCC 2998 = tested on: HCC 2998
HCT-15 = tested on: HCT-15
HL-60 = tested on: HL-60
HT-29 = tested on: HT-29
KM12 = tested on: KM12
MDA-MB-231 = tested on: MDA-MB-231
NCI-H522 = tested on: NCI-H522
RXF 393 = tested on: RXF 393
SF-268 = tested on: SF-268
SF-539 = tested on: SF-539
SK-MEL-28 = tested on: SK-MEL-28
SN12C = tested on: SN12C
SW-620 = tested on: SW-620
UACC-257 = tested on: UACC-257
UO-31 = tested on: UO-31

Compound	GI50 (786-0)	GI50 (A498)	GI50 (ACHN)	GI50 (EKVX)	GI50 (HCC 2998)	GI50 (HCT-15)	GI50 (HL-60)	GI50 (HT-29)	GI50 (KM12)	GI50 (MDA-MB-231)	GI50 (NCI-H522)	GI50 (RXF 393)	GI50 (SF-268)	GI50 (SF-539)	GI50 (SK-MEL-28)	GI50 (SN12C)	GI50 (SW-620)	GI50 (UACC-257)	GI50 (UO-31)
CC[C@@H](/C=C\CCC1(C[C@@H](N)CCC=C(C)C)OCCO1)O[Si](C(C)C)(C(C)C)C(C)C	17.4 µM (inactive)	18.2 µM (inactive)	18 µM (inactive)	15.6 µM (inactive)	13 µM (inactive)	18.9 µM	4.28 µM (inactive)	17.3 µM (inactive)	18.1 µM (inactive)	19 µM (inactive)	20 µM (inactive)	19.4 µM (inactive)	19.1 µM (inactive)	17.7 µM (inactive)	18 µM (inactive)	17.3 µM (inactive)	21.7 µM (inactive)	19.3 µM (inactive)	17.6 µM (inactive)
O=C1OC(c2ccc(O)c(-c3ccccc3)c2)(c2ccc(O)c(-c3ccccc3)c2)c2c(Cl)c(Cl)c(Cl)c(Cl)c21	> 100 µM (inactive)	> 100 µM (inactive)	> 100 µM (inactive)	> 100 µM (inactive)	> 100 µM (inactive)	> 100 µM	0.177 µM (active)	> 100 µM (inactive)	> 100 µM (inactive)	> 100 µM (inactive)	> 100 µM (inactive)	> 100 µM (inactive)	> 100 µM (inactive)	> 100 µM (inactive)	> 100 µM (inactive)	> 100 µM (inactive)	> 100 µM (inactive)	> 100 µM (inactive)	> 100 µM (inactive)
CCOC(=O)c1ccc(Nc2nc3ccccc3n3cccc23)cc1	26.8 µM (inactive)	46 µM (inactive)	72.8 µM (inactive)	31.3 µM (inactive)	35 µM (inactive)	21.8 µM	< 0.01 µM (active)	36.7 µM (inactive)	28.1 µM (inactive)	36 µM (inactive)	88.1 µM (inactive)	14.3 µM (inactive)	35.7 µM (inactive)	35.2 µM (inactive)	88.1 µM (inactive)	12.8 µM (inactive)	9.38 µM (inactive)	> 100 µM (inactive)	> 100 µM (inactive)
C=C(C)C(=O)OC1CC2(C)OC(=CC2=O)C(C)CC2OC(=O)C(=C)C12 (stereo not given)	3.24 µM (inactive)	15.2 µM (inactive)	2.8 µM (inactive)	7.76 µM (inactive)	10.3 µM (inactive)	1.65 µM	0.461 µM (active)	3.92 µM (inactive)	19.8 µM (inactive)	13.5 µM (inactive)	0.832 µM (active)	1.19 µM (inactive)	26.7 µM (inactive)	3.91 µM (inactive)	4.2 µM (inactive)	5.85 µM (inactive)	2.79 µM (inactive)	12.3 µM (inactive)	4.9 µM (inactive)
NNC(=O)CNc1cccc(Br)c1	> 100 µM (inactive)	> 100 µM (inactive)	> 100 µM (inactive)	> 100 µM (inactive)	> 100 µM (inactive)	> 100 µM	74.8 µM (inactive)	> 100 µM (inactive)	> 100 µM (inactive)	> 100 µM (inactive)	> 100 µM (inactive)	> 100 µM (inactive)	> 100 µM (inactive)	> 100 µM (inactive)	> 100 µM (inactive)	> 100 µM (inactive)	> 100 µM (inactive)	> 100 µM (inactive)	> 100 µM (inactive)
OCCN1CCN(c2nc(N3CCCC3)c3nc(Cl)c(NCc4ccccc4)nc3n2)CC1	1.95 µM (inactive)	12.5 µM (inactive)	7.8 µM (inactive)	11.3 µM (inactive)	1.93 µM (inactive)	2.84 µM	3.81 µM (inactive)	3.18 µM (inactive)	4.97 µM (inactive)	9.82 µM (inactive)	5.04 µM (inactive)	1.32 µM (inactive)	8.85 µM (inactive)	5.81 µM (inactive)	4.09 µM (inactive)	10.4 µM (inactive)	3.78 µM (inactive)	5.15 µM (inactive)	4.89 µM (inactive)
CCOC(=O)c1ccc(NC(=O)O/N=C(/Cl)C(C)C)cc1	6.67 µM (inactive)	14.7 µM (inactive)	14 µM (inactive)	14.9 µM (inactive)	16.6 µM (inactive)	8.59 µM	1.23 µM (inactive)	20.7 µM (inactive)	18.3 µM (inactive)	19.5 µM (inactive)	2.07 µM (inactive)	16.3 µM (inactive)	16.5 µM (inactive)	18.6 µM (inactive)	16.2 µM (inactive)	19.9 µM (inactive)	2.09 µM (inactive)	16.9 µM (inactive)	17.8 µM (inactive)
COC(=O)C1(Cc2ccccc2)Cc2cc3c(cc2C1=O)CCC3 (stereo not given)	39.4 µM (inactive)	28.2 µM (inactive)	49.8 µM (inactive)	25.3 µM (inactive)	2.81 µM (inactive)	31.6 µM	14.6 µM (inactive)	12 µM (inactive)	19.8 µM (inactive)	43.6 µM (inactive)	21.2 µM (inactive)	36.8 µM (inactive)	22.2 µM (inactive)	43.2 µM (inactive)	46.2 µM (inactive)	37.3 µM (inactive)	29.6 µM (inactive)	36.9 µM (inactive)	34.5 µM (inactive)
O=C(O)c1[nH]c2c([N+](=O)[O-])cc([N+](=O)[O-])cc2c1C(=O)O	> 100 µM (inactive)	> 100 µM (inactive)	> 100 µM (inactive)	> 100 µM (inactive)	> 100 µM (inactive)	> 100 µM	> 100 µM (inactive)	> 100 µM (inactive)	> 100 µM (inactive)	> 100 µM (inactive)	78.9 µM (inactive)	> 100 µM (inactive)	> 100 µM (inactive)	> 100 µM (inactive)	> 100 µM (inactive)	> 100 µM (inactive)	> 100 µM (inactive)	> 100 µM (inactive)	> 100 µM (inactive)
C=CC[C@@]1([C@H](C=C)COCc2ccc(OC)cc2)CC[C@]2(C)OC(C)(C)[C@@H](c3ccccc3)N2C1=S	58.6 µM (inactive)	71.3 µM (inactive)	43 µM (inactive)	26.2 µM (inactive)	44.8 µM (inactive)	81.5 µM	22.4 µM (inactive)	29 µM (inactive)	36.9 µM (inactive)	46.2 µM (inactive)	20.9 µM (inactive)	86.7 µM (inactive)	53.5 µM (inactive)	95.3 µM (inactive)	57.1 µM (inactive)	62.1 µM (inactive)	53 µM (inactive)	34.8 µM (inactive)	> 100 µM (inactive)
COC(=O)[C@]1(C)CCC[C@@]2(C)[C@@H]3C[C@@H]4[C@H]5C[C@@]3(CC[C@@H]21)C[C@@]45C	16.1 µM (inactive)	17.2 µM (inactive)	15.8 µM (inactive)	15.6 µM (inactive)	17.3 µM (inactive)	16.2 µM	2.08 µM (inactive)	14.5 µM (inactive)	–	15.6 µM (inactive)	16.8 µM (inactive)	17.1 µM (inactive)	17.9 µM (inactive)	22.1 µM (inactive)	17.5 µM (inactive)	19.2 µM (inactive)	24.3 µM (inactive)	15.4 µM (inactive)	16 µM (inactive)
Cc1nc(Cl)c(Cl)c(Cl)n1	0.409 µM (active)	2.32 µM (inactive)	0.324 µM (active)	0.357 µM (active)	1.42 µM (inactive)	0.558 µM	0.0269 µM (active)	0.104 µM (active)	0.405 µM (active)	0.276 µM (active)	1.79 µM (inactive)	0.495 µM (active)	1.92 µM (inactive)	1.44 µM (inactive)	0.311 µM (active)	0.284 µM (active)	0.0471 µM (active)	0.687 µM (active)	–
Cc1cc(S(=O)(=O)[N-]C(=C(C#N)C#N)[n+]2ccc(N(C)C)cc2)c(SCC(=O)O)cc1Cl	> 100 µM (inactive)	> 100 µM (inactive)	> 100 µM (inactive)	> 100 µM (inactive)	> 100 µM (inactive)	> 100 µM	> 100 µM (inactive)	> 100 µM (inactive)	> 100 µM (inactive)	> 100 µM (inactive)	45.8 µM (inactive)	> 100 µM (inactive)	> 100 µM (inactive)	> 100 µM (inactive)	> 100 µM (inactive)	> 100 µM (inactive)	–	> 100 µM (inactive)	> 100 µM (inactive)
CC1=C(C(=O)NNC(=O)C[N+](C)(C)C)CC(C(=O)NNC(=O)C[N+](C)(C)C)=C(C)N1	> 100 µM (inactive)	61.7 µM (inactive)	> 100 µM (inactive)	> 100 µM (inactive)	> 100 µM (inactive)	> 100 µM	24.9 µM (inactive)	> 100 µM (inactive)	> 100 µM (inactive)	> 100 µM (inactive)	> 100 µM (inactive)	> 100 µM (inactive)	> 100 µM (inactive)	> 100 µM (inactive)	–	> 100 µM (inactive)	> 100 µM (inactive)	> 100 µM (inactive)	68.4 µM (inactive)
CC1CCCN(CP(=O)(c2ccccc2)c2ccccc2)C1 (stereo not given)	> 100 µM (inactive)	> 100 µM (inactive)	> 100 µM (inactive)	> 100 µM (inactive)	52.5 µM (inactive)	> 100 µM	13.6 µM (inactive)	–	> 100 µM (inactive)	> 100 µM (inactive)	> 100 µM (inactive)	> 100 µM (inactive)	> 100 µM (inactive)	> 100 µM (inactive)	> 100 µM (inactive)	> 100 µM (inactive)	> 100 µM (inactive)	> 100 µM (inactive)	> 100 µM (inactive)
